Source: PMC9474448, “Assembly of transmembrane pores from mirror-image peptides” (Nature Communications, 2022)

Assays:
Assay type in all cases: binding
[1] = tested on: DpPorA; assay: Single-molecule sensing: analyte blocking of single DpPorA pore; settings: 1 M KCl; for ion current blockage of single DpPorA (in words): 10 mM HEPES pH 7.4, am8γCD 10 μM trans at positive voltages, γCD, s8γCD 100 μM cis, D9, R4 10 μM cis
Description: (§1) Electrical recordings were carried out by using bilayers of 1,2-diphytanoyl-sn-glycero-3-phosphocholine (DPhPC, Avanti Polar Lipids) formed across ~100 µm in diameter polytetrafluoroethylene (Teflon) film of 25 µm thick (Goodfellow, Cambridge)[59]. The Teflon film is sandwiched between two sides of the Delrin bilayer chamber, called cis and trans compartments (500 µL each). Solvent-free bilayers were formed by pre-treating the aperture with hexadecane in n-pentane (1 μL, 5 mg mL^−1) on each side of the bilayer chamber. Then the bilayer chamber was filled with the electrolyte solution (1 M KCl, 10 mM HEPES, pH 7.4) and DPhPC in n-pentane (2 μL, 5 mg mL^−1) was added to both sides of the chamber. After 5 min, a bilayer was formed when the electrolyte was raised, bringing the two lipid surface monolayers together at the aperture. pPorA pores were formed by adding self-assembled preoligomers extracted from the SDS PAGE gel to the cis side of the chamber. The cWza pores were formed by adding peptide solution in 0.1% DDM (1 µL, 100 µg mL^−1) to the cis side. The cis chamber was connected to the grounded electrode and the trans chamber was attached to the working electrode. A potential difference was applied through a pair of Ag/AgCl electrodes, set in 3% agarose containing 3.0 M KCl. We investigated the ion selectivity of pores using the KCl salt gradient applied across the bilayer chambers (1 M cis /0.15 M trans). The reverse potential was determined to calculate the permeability ratio of K^+ and Cl^- ions across the pore (Supplementary text). The current was amplified using an Axopatch 200B amplifier, digitized with a Digidata 1550B digitizer (pCLAMP 11.0, Molecular Devices, CA) with a low-pass filter frequency of 10 kHz and a sampling frequency of 50 kHz or a low-pass filter frequency of 2 kHz and a sampling frequency of 10 kHz. Single-channel data analysis was conducted using Clampfit 11.0 (Molecular devices, CA). Histogram plotting were performed in OriginPro 2022 (OriginLab).

[2] = tested on: LpPorA; assay: Single-channel analyte blocking of LpPorA pore; settings: +50 mV; am8γCD 1 µM trans; 1 M KCl; n = 3
Description: as §1, with “A potential difference was applied through a pair of Ag/AgCl electrodes, set in 3% agarose containing 3.0 M KCl. We investigated the ion selectivity of pores using the KCl salt gradient applied across the bilayer chambers (1 M cis /0.15 M trans).” left out, “The current was amplified using an Axopatch 200B amplifier, digitized with a Digidata 1550B digitizer (pCLAMP 11.0, Molecular Devices, CA) with a low-pass filter frequency of 10 kHz and a sampling frequency of 50 kHz or a low-pass filter frequency of 2 kHz and a sampling frequency of 10 kHz. Single-channel data analysis was conducted using Clampfit 11.0 (Molecular devices, CA). Histogram plotting were performed in OriginPro 2022 (OriginLab).” left out

[3] = tested on: DcWza; assay: Single-channel analyte blocking of DcWza pore; settings: 100 μM, trans; +100 mV; 1 M KCl, 10 mM HEPES, pH 7.4
Description: as §1, with “A potential difference was applied through a pair of Ag/AgCl electrodes, set in 3% agarose containing 3.0 M KCl. We investigated the ion selectivity of pores using the KCl salt gradient applied across the bilayer chambers (1 M cis /0.15 M trans).” left out, “The current was amplified using an Axopatch 200B amplifier, digitized with a Digidata 1550B digitizer (pCLAMP 11.0, Molecular Devices, CA) with a low-pass filter frequency of 10 kHz and a sampling frequency of 50 kHz or a low-pass filter frequency of 2 kHz and a sampling frequency of 10 kHz. Single-channel data analysis was conducted using Clampfit 11.0 (Molecular devices, CA). Histogram plotting were performed in OriginPro 2022 (OriginLab).” left out

SMILES | pore block (closure) of DpPorA (S) ([1]; 10 μM analyte, cis, negative voltages) | ion current blockage of single DpPorA (in words) [1] | mean blockage time (τoff) [2] | ion current blockage of DcWza in the open state (in words) [3]
NCC1OC2OC3C(CN)OC(OC4C(CN)OC(OC5C(CN)OC(OC6C(CN)OC(OC7C(CN)OC(OC8C(CN)OC(OC9C(CN)OC(OC1C(O)C2O)C(O)C9O)C(O)C8O)C(O)C7O)C(O)C6O)C(O)C5O)C(O)C4O)C(O)C3O (centres unmarked) [am8γCD] | 100% | complete pore closure | 0.22 ± 0.03 ms | no blockages were observed
OC[C@H]1O[C@@H]2O[C@H]3[C@H](O)[C@@H](O)[C@@H](O[C@H]4[C@H](O)[C@@H](O)[C@@H](O[C@H]5[C@H](O)[C@@H](O)[C@@H](O[C@H]6[C@H](O)[C@@H](O)[C@@H](O[C@H]7[C@H](O)[C@@H](O)[C@@H](O[C@H]8[C@H](O)[C@@H](O)[C@@H](O[C@H]9[C@H](O)[C@@H](O)[C@@H](O[C@H]1[C@H](O)[C@H]2O)O[C@@H]9CO)O[C@@H]8CO)O[C@@H]7CO)O[C@@H]6CO)O[C@@H]5CO)O[C@@H]4CO)O[C@@H]3CO [γCD] | – | did not produce any current blockages | – | –
